# According to PubChem BioAssay (NCI):
#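 All cell lines were grown in 96-well plates and treated with compound for 48 hours. GI50 marks 50% less growth. Definition used: TGI = concentration required for complete inhibition of growth.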
# Assays:
# Assay in all cases: DTP human tumour cell line panel, 48 h
# [1] = system: HOP-62 NSCLC
# [2] = system: SF-295 CNS
# [3] = system: NCI-H460 lung
# [4] = system: OVCAR-5 ovarian
# [5] = system: M14 melanoma
# [6] = system: MDA-MB-435
# [7] = system: SK-MEL-28 melanoma
# [8] = system: NCI-H226 lung
# [9] = system: HCT-116 colon
# [10] = system: K-562 leukemia
# [11] = system: OVCAR-8 ovarian
# [12] = system: EKVX NSCLC
# [13] = system: DU-145 prostate
# [14] = system: IGROV1 ovarian
# [15] = system: CCRF-CEM leukemia
# [16] = system: A498 renal
# [17] = system: PC-3 prostate
# [18] = system: SW-620 colon
# [19] = system: 786-0 renal
# [20] = system: UACC-257 melanoma
# [21] = system: SF-268 CNS
# [22] = system: HOP-92 NSCLC
# [23] = system: HT29 colon
# [24] = system: A549 NSCLC
# [25] = system: SK-MEL-2 melanoma
# [26] = system: NCI-H522 lung
# [27] = system: HCT-15 colon
# [28] = system: SK-MEL-5 melanoma
# [29] = system: UACC-62 melanoma
# [30] = system: MALME-3M melanoma
# [31] = system: ACHN renal
# [32] = system: SNB-75 CNS
# [33] = system: OVCAR-4 ovarian
# [34] = system: U251 CNS
# [35] = system: CAKI-1 renal
# [36] = system: RPMI-8226 leukemia
# [37] = system: MCF7 breast
# [38] = system: HL-60(TB) leukemia
# [39] = system: SR leukemia
# [40] = system: HCC-2998 colon
# [41] = system: MDA-MB-231 breast
# [42] = system: BT-549 breast
# [43] = system: SNB-19 CNS
# [44] = system: SK-OV-3 ovarian
# [45] = system: NCI/ADR-RES ovarian
# [46] = system: TK-10 renal
# [47] = system: MOLT-4 leukemia
# [48] = system: LOX IMVI melanoma
# [49] = system: SF-539 CNS
# [50] = system: SN12C renal
# [51] = system: HS 578T breast
# [52] = system: RXF 393 renal
# [53] = system: T-47D breast
# [54] = system: UO-31 renal
# [55] = system: KM12 colon
# [56] = system: OVCAR-3 ovarian
# [57] = system: COLO 205 colon
compound,measurement,setting,value
CN(C)CCCOc1c2ccccc2nc2c1oc1ccc(Cl)cc12,GI50,[1],3.66 µM
same,TGI,[1],15.5 µM
same,GI50,[2],3.82 µM
same,TGI,[2],15 µM
same,GI50,[3],3.06 µM
same,TGI,[3],11.6 µM
same,GI50,[4],4.04 µM
same,TGI,[4],15.9 µM
same,GI50,[5],3.04 µM
same,TGI,[5],11 µM
same,GI50,[6],3.44 µM
same,TGI,[6],12.7 µM
same,GI50,[7],4.56 µM
same,TGI,[7],16.5 µM
same,GI50,[8],3.02 µM
same,TGI,[8],9.95 µM
same,GI50,[9],1.87 µM
same,TGI,[9],13 µM
same,GI50,[10],2.79 µM
same,TGI,[10],> 100 µM
same,GI50,[11],3.28 µM
same,TGI,[11],14.2 µM
same,GI50,[12],3.68 µM
same,TGI,[12],14.7 µM
same,GI50,[13],4.14 µM
same,TGI,[13],14.5 µM
same,GI50,[14],3.61 µM
same,TGI,[14],13 µM
same,GI50,[15],4.12 µM
same,TGI,[15],46.1 µM
same,GI50,[16],10.4 µM
same,TGI,[16],23.6 µM
same,GI50,[17],3.16 µM
same,TGI,[17],12.3 µM
same,GI50,[18],1.92 µM
same,TGI,[18],10.1 µM
same,GI50,[19],3.32 µM
same,TGI,[19],15.3 µM
same,GI50,[20],3.44 µM
same,TGI,[20],13.3 µM
same,GI50,[21],3.8 µM
same,TGI,[21],17 µM
same,GI50,[22],1.75 µM
same,TGI,[22],8.01 µM
same,GI50,[23],2.56 µM
same,TGI,[23],11.7 µM
same,GI50,[24],2.8 µM
same,TGI,[24],10.6 µM
same,GI50,[25],6.35 µM
same,TGI,[25],18.9 µM
same,GI50,[26],2.76 µM
same,TGI,[26],11.1 µM
same,GI50,[27],3.07 µM
same,TGI,[27],12.5 µM
same,GI50,[28],9.28 µM
same,TGI,[28],21.3 µM
same,GI50,[29],5.11 µM
same,TGI,[29],19.1 µM
same,GI50,[30],2.77 µM
same,TGI,[30],9.64 µM
same,GI50,[31],2.2 µM
same,TGI,[31],11.5 µM
same,GI50,[32],2.6 µM
same,TGI,[32],11.8 µM
same,GI50,[33],2.42 µM
same,TGI,[33],7.45 µM
same,GI50,[34],3.36 µM
same,TGI,[34],13.7 µM
same,GI50,[35],2.63 µM
same,TGI,[35],11.3 µM
same,GI50,[36],2.7 µM
same,TGI,[36],7.56 µM
same,GI50,[37],2.88 µM
same,TGI,[37],10.3 µM
same,GI50,[38],3.13 µM
same,TGI,[38],14.1 µM
same,GI50,[39],3.02 µM
same,TGI,[39],12.2 µM
same,GI50,[40],3.12 µM
same,TGI,[40],13.9 µM
same,GI50,[41],2.64 µM
same,TGI,[41],10.5 µM
same,GI50,[42],5.17 µM
same,TGI,[42],18.5 µM
same,GI50,[43],3.93 µM
same,TGI,[43],16.3 µM
same,GI50,[44],4.6 µM
same,TGI,[44],16.7 µM
same,GI50,[45],1.94 µM
same,TGI,[45],10.2 µM
same,GI50,[46],5.16 µM
same,TGI,[46],17.1 µM
same,GI50,[47],3.19 µM
same,TGI,[47],14 µM
same,GI50,[48],1.48 µM
same,TGI,[48],3.08 µM
same,GI50,[49],3.24 µM
same,TGI,[49],13 µM
same,GI50,[50],3.01 µM
same,TGI,[50],14.1 µM
same,GI50,[51],3.76 µM
same,TGI,[51],19.7 µM
same,GI50,[52],2.58 µM
same,TGI,[52],8.7 µM
same,GI50,[53],4.92 µM
same,TGI,[53],20.7 µM
same,GI50,[54],2.32 µM
same,TGI,[54],12.1 µM
same,GI50,[55],4.18 µM
same,TGI,[55],18.5 µM
same,GI50,[56],5.2 µM
same,TGI,[56],17.5 µM
same,GI50,[57],2.49 µM
same,TGI,[57],9.76 µM
